Bounds are passed on as bounds.

The target in this test is T1, Androgen Receptor (AR) (Homo sapiens, UniProt P10275, T878A).
T1 construct: cell based immuno-fluorescence assay using the LNCaP prostate epithelial cell line; endogenous in cells; host or cells: LNCaP clone FGC (ATCC CRL-1740)
T1 sequence (P10275 1-920 T878A): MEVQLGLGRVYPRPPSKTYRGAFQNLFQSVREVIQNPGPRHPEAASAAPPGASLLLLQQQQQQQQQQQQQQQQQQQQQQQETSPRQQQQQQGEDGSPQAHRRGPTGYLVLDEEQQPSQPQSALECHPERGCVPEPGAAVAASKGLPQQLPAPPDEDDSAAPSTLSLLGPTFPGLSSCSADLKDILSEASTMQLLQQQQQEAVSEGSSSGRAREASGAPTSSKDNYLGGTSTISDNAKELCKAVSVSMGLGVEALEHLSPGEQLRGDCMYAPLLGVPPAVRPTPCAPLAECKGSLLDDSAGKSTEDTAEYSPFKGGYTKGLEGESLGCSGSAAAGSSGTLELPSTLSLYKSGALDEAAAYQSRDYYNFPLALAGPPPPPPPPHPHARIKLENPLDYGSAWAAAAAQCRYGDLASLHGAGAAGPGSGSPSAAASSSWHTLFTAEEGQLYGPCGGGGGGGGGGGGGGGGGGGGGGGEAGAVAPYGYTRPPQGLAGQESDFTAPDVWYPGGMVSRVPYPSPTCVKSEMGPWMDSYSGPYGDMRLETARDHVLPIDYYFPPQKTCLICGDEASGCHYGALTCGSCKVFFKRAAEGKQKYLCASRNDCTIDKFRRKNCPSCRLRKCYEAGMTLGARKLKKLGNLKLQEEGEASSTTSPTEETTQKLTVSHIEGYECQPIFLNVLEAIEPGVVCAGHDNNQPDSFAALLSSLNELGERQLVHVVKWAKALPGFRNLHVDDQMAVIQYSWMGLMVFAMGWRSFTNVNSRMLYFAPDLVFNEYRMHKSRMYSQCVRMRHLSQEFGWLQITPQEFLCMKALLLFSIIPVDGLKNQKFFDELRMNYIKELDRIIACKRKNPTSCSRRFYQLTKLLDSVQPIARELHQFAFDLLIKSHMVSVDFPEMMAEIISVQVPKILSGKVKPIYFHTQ
Description: LNCaP Androgen Receptor Down-regulation Cell Assay (immunofluorescence end point). Format: cell-based. To be noted: LNCaP prostate carcinoma cells, compound incubation 20-22 hours, 50% reduction of the AR signal; read-out: Androgen Receptor Down-regulation Assay (a) IC50/μM. How it is done:
The ability of compounds to reduce Androgen Receptor (AR) numbers was assessed in a cell based immuno-fluorescence assay using the LNCaP prostate epithelial cell line.
a) LNCaP Androgen Receptor Down-regulation Cell Assay
A 5 ml volume of Growth Medium was added to each flask (as above except that 5% (v/v) charcoal stripped FBS (HyClone Code no. SH30068.03) was included instead of 10% (v/v) FBS). Cells were syringed at least twice using a sterile 18G×1.5″ (1.2×40 mm) broad gauge needle and cell density was measured using a haemocytometer.
Test data reported herein was generated using two different compounds preparation and dosing methods. In method (1) a 10 mM compound stock solution in 100% (v/v) DMSO was serially diluted in 4-fold steps in 100% (v/v) DMSO using a Thermo Scientific Matrix SerialMate. The diluted compounds were then further diluted 1 in 30 in assay media using a Thermo Scientific Matrix PlateMate and a 10 μl aliquot of this dilution was dosed to cells manually using a multi-channel pipette. In method (2) starting with a 10 mM compound stock solution, the Labcyte Echo 550 was used to generate a compound concentration response set diluted in 30 μl of assay media. The Echo 550 is a liquid handler that uses acoustic technology to perform direct microplate-to-microplate transfers of DMSO compound solutions. The system can be programmed to transfer volumes as low as […] in multiple increments between microplates and in so doing generates a serial dilution of compound which is then back-filled to normalise the DMSO concentration across the dilution range. A 10 μl volume of diluted compound is then dosed to cells using a Thermo Scientific Matrix PlateMate.
Plates were incubated overnight at 37° C., 5% CO2. Wells were then dosed with compound prepared by one of the 2 methods above and further incubated for 20-22 hours at 37° C., 5% CO2. […] This fixative solution was removed and cells were washed with 250 μl of PBS/0.05% (v/v) Tween 20 (PBST) using an automated plate washer. This process was then repeated twice more.
Immunostaining was performed at room temperature. Cells were permeabilised by the addition of 35 μl of PBS containing 0.5% Tween 20 and incubated for 1 hour at room temperature. Permeabilisation solution was removed and cells were washed with 250 μl of PBST using an automated plate washer. This process was then repeated twice more. 35 μl of Blocking Solution (PBST containing 3% (w/v) Marvel dried skimmed milk (Nestle)) was added to each well and plates were incubated at room temperature for a minimum of 1 hour. […] Then this primary antibody solution was removed from the wells followed by 3×100 μl PBST washes using a plate washer. […] Henceforth, wherever possible, plates were protected from light exposure. The plates were incubated for 1 hour and then the secondary antibody solution was removed from the wells followed by 3×100 ul PBST washes using a plate washer. Then 50 μl of PBST was added to each well and plates were covered with a black plate seal and stored at 4° C. before being read. Plates were read within six hours of completing the immunostaining.
The Green Fluorescent AR-associated signal in each well was measured using an Acumen Explorer HTS Reader (TTP Labtech Ltd., Cambridge). […] The instrument is a laser-scanning fluorescence microplate cytometer which samples the well at regular intervals and uses threshold algorithms to identify all fluorescent intensities above the solution background without the need to generate and analyse an image. These fluorescent objects can be quantified and provide a measure of the AR levels in cells. Fluorescence dose response data obtained with each compound was exported into a suitable software package (such as Origin) to perform curve fitting analysis. Down-regulation of AR levels was expressed as an IC50 value.
As for `Cc1cccc(N2CCN(c3ccc4nnc(C(F)(F)F)n4n3)CC2)c1` [Example 36, 6-[4-(3-methylphenyl)piperazin-1-yl]-3-(trifluoromethyl)-[1,2,4]triazolo[4,3-b]pyridazine], the DC50 turned out to be 0.99 µM.

On to `FC(F)(F)c1nnc2ccc(N3CCC(Oc4ccc(Cl)cn4)CC3)nn12` [Example 618], for which the DC50 is more than 4 µM.

Take `FC(F)(F)c1nnc2ccc(N3CCC(Oc4cncc(Cl)c4)CC3)nn12` [Example 617]: the DC50 is 4.3 µM.

With `COc1ncccc1CN1CCN(c2ccc3nnc(C(F)(F)F)n3n2)CC1` [Example 775], the DC50 was 6.8 µM.

Take `CC(C)(c1ccc(F)cc1)N1CCN(c2ccc3nnc(C(F)F)n3n2)CC1` [Example 271, 3-(difluoromethyl)-6-[4-[1-(4-fluorophenyl)-1-methylethyl]piperazin-1-yl][1,2,4]triazolo[4,3-b]pyridazine]: the DC50 is 1.8 µM.

For the molecule `Fc1ccc(CN2CCN(c3ccc4nnc(C(F)(F)F)n4n3)CC2)c(F)c1F` [Example 766], the DC50 was more than 17 µM.

For `COc1cc(CN2CCN(c3ccc4nnc(C(F)F)n4n3)CC2)ccc1F` [Example 257], the DC50 was 9 µM.

Take `FC(F)(F)COCC1CCN(c2ccc3nnc(C(F)(F)F)n3n2)CC1` [Example 482]: the DC50 came to 1.8 µM.

On to `Fc1ccc(OCC2CCN(c3ccc4nnc(C(F)(F)F)n4n3)CC2)cc1` [Example 463], for which the DC50 worked out at 0.98 µM.

As for `Cc1ccnc(C2(O)CCN(c3ccc4nnc(C(F)(F)F)n4n3)CC2)c1` [Example 322, 4-(4-methylpyridin-2-yl)-1-[3-(trifluoromethyl)[1,2,4]triazolo[4,3-b]pyridazin-6-yl]piperidin-4-ol], the DC50 turned out to be 9.6 µM.

Consider `C[C@@H]1CN(Cc2ccccc2)[C@@H](C)CN1c1ccc2nnc(C(F)(F)F)n2n1` [Example 216, 6-[(2R,5S)-4-benzyl-2,5-dimethylpiperazin-1-yl]-3-(trifluoromethyl)[1,2,4]triazolo[4,3-b]pyridazine], for which the DC50 stood at 6.8 µM.

With `CN(C)C(=O)c1cccc(C2CCN(c3ccc4nnc(C(F)(F)F)n4n3)CC2)c1` [Example 647], the DC50 came out at 1.7 µM.

As for `FC(F)(F)c1nnc2ccc(N3CC4CN(Cc5ccc(Br)nc5)CC4C3)nn12` (stereo not drawn) [Example 798], the DC50 is 1 µM.

For `FC(F)(Cl)c1nnc2ccc(N3CCN(Cc4cccc(Br)c4)CC3)nn12` [Example 344], the DC50 came to 0.29 µM.

For the molecule `FC(F)(F)c1ccc(O[C@H]2CCN(c3ccc4nnc(C(F)(F)F)n4n3)C2)cc1` [Example 592], the DC50 turned out to be 9.6 µM.

Consider `CN1CCN(CCOc2ccc(C3CCN(c4ccc5nnc(C(F)(F)F)n5n4)CC3)cc2)CC1` [Example 735], for which the DC50 stood at 1.9 µM.

Take `CN(C)CCCOc1cccc(C2CCN(c3ccc4nnc(C(F)(F)F)n4n3)CC2)c1` [Example 670]: the DC50 came out at 0.67 µM.

Consider `N#Cc1cccc(O[C@@H]2CCN(c3ccc4nnc(C(F)(F)F)n4n3)C2)c1` [Example 584], for which the DC50 amounted to 2.8 µM.

With `O=C(CN1CCOCC1)Nc1cccc(C2CCN(c3ccc4nnc(C(F)(F)F)n4n3)CC2)c1` [Example 713], the DC50 is 0.81 µM.

For `COCCOc1cccc(C2CCN(c3ccc4nnc(C(F)(F)F)n4n3)CC2)c1` [Example 684], the DC50 was determined as 0.69 µM.

For `FC(F)(F)c1nnc2ccc(N3CCC(Oc4ccc(OCc5ccon5)cc4)CC3)nn12` [Example 438], the DC50 was found to be 1.6 µM.

Take `FC(F)(F)c1nnc2ccc(N3CCN(Cc4c[nH]c5ccccc45)CC3)nn12` [Example 94, 6-[4-(1H-indol-3-ylmethyl)piperazin-1-yl]-3-(trifluoromethyl)-[1,2,4]triazolo[4,3-b]pyridazine]: the DC50 worked out at 0.93 µM.

With `COCCN(C)C(=O)c1ccc(OC2CCN(c3ccc4nnc(C(F)(F)F)n4n3)CC2)cc1` [Example 425], the DC50 was 3.6 µM.

For the molecule `CN1CCN(CCCOc2ccc(C3CCN(c4ccc5nnc(C(F)(F)F)n5n4)CC3)cc2)CC1` [Example 732], the DC50 was 1.1 µM.

`Fc1ccc(C(F)F)c(CN2CCN(c3ccc4nnc(C(F)(F)F)n4n3)CC2)c1` [Example 779, 6-[4-[2-(difluoromethyl)-5-fluorobenzyl]piperazin-1-yl]-3-(trifluoromethyl)[1,2,4]triazolo[4,3-b]pyridazine]: the DC50 came out at 0.54 µM.

Regarding `CN(CCO)C(=O)c1cccc(OC2CCN(c3ccc4nnc(C(F)(F)F)n4n3)CC2)c1` [Example 685], the DC50 was determined as 5.7 µM.

For `COc1ccc(C2(O)CCN(c3ccc4nnc(C(F)(F)F)n4n3)CC2)cn1` [Example 321, 4-(6-methoxypyridin-3-yl)-1-[3-(trifluoromethyl)[1,2,4]triazolo[4,3-b]pyridazin-6-yl]piperidin-4-ol], the DC50 came to 8 µM.

Consider `FC(F)(F)c1nnc2ccc(N3CCN(Cc4c[nH]c5ccc(Br)cc45)CC3)nn12` [Example 281], for which the DC50 came to 0.8 µM.

On to `N#Cc1cccc(OCC2CCN(c3ccc4nnc(C(F)(F)F)n4n3)CC2)c1` [Example 476], for which the DC50 stood at 3.5 µM.

As to `FC(F)(F)c1nnc2ccc(N3CCC(Oc4ccc(Br)cn4)CC3)nn12` [Example 721], the DC50 was found to be 2.9 µM.

Regarding `COc1ccc(OC)c(S(=O)(=O)N2CCN(c3ccc4nnc(C(F)(F)F)n4n3)CC2)c1` [Example 399], the DC50 worked out at 3.7 µM.

Regarding `Fc1cccc(O[C@@H]2CCN(c3ccc4nnc(C(F)(F)F)n4n3)C2)c1` [Example 585], the DC50 came out at 1.5 µM.

For the molecule `C[C@H](c1ccc(F)cc1)N1CCN(c2ccc3nnc(C(F)(F)F)n3n2)CC1` [Example 308, 6-[4-[(1R)-1-(4-fluorophenyl)ethyl]piperazin-1-yl]-3-(trifluoromethyl)[1,2,4]triazolo[4,3-b]pyridazine], the DC50 came to 1.4 µM.

Consider `FC(F)(F)c1nnc2ccc(N3CCN(Cc4c[nH]c5cnccc45)CC3)nn12` [Example 477], for which the DC50 was 6.3 µM.

With `COc1ncc(C2CCN(c3ccc4nnc(C(F)(F)F)n4n3)CC2)cc1F` [Example 614], the DC50 is more than 12 µM.

With `CCC(F)(F)c1nnc2ccc(N3CCN(Cc4cccc(C#N)c4)CC3)nn12` [Example 246], the DC50 amounted to 23 µM.

Source of the values: patent US8003649B2 (AstraZeneca AB, priority 2007, dated 2011).
